Assays:
[1] = tested on: LDLR level in HepG2 cells; experiment: Effect on the LDLR level in HepG2 cells (ELISA); type: cell-based, Human; conditions: 48 hours, LDLR in lysate by ELISA
Method: 1. Experimental objective: To detect the effect of the compounds on the LDLR protein level.
2. […] A self-adhesive seal was applied, the plate was placed on a plate shaker at room temperature, gently shaken, uniformly mixed, and incubated for 2 hours. • 11) The plate was placed on the plate washer, the washing liquid was set to 350 μL per well, and the plate was washed 4 times repeatedly. • 12) 200 μL of Human LDLR conjugate was added, a self-adhesive seal was applied, and the plate was placed on the plate shaker, well mixed uniformly, and incubated for 2 hours. • 13) The plate was placed on the plate washer, the washing liquid was set to 350 μL per well, and the plate was washed 4 times repeatedly. • 14) 200 μL/well of Substrate solution was added, and the plate was placed in the dark, applied with a self-adhesive seal, placed on the plate shaker, well mixed uniformly, and incubated for 20 minutes. • 15) 50 μL/well of Stop solution was added and mixed uniformly over 20 min. • 16) The optical density (OD) value in each well was measured in sequence at a wavelength of 450 nm by the microplate reader.
3. Experimental data processing method: After the OD values were read by the microplate reader, the OD value of the 0-concentration standard in the standard group was subtracted from the OD values of the standards, control group, and samples to obtain the actual OD values for these wells. […]

[2] = tested on: PCSK9 secreted by HepG2 cells; experiment: Effect on the concentration of PCSK9 secreted by HepG2 cells (ELISA); type: cell-based; conditions: Homo sapiens, 48 hours, PCSK9 in culture medium by ELISA
In short: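 HepG2 cells treated with compound for 48 h at 37° C., 5% CO2. Secreted PCSK9 in medium quantified by sandwich ELISA (HRP detection, OD 450 nm) against a 0–10 ng/mL standard curve. Inhibition relative to control; IC50 fitted from concentration–inhibition data.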

LDL-C = conditions: combined with a statin; cited from earlier work

Row | IC50 [2] [µM] | SMILES | LDLR expression level [1] [%] | reduce LDL-C (LDL-C)
1 | – | O=C1c2ncncc2CN1c1ccc(N[C@H]2CC[C@H](Nc3nc4cc(F)ccn4n3)C2)nc1 [Example 21, 6-(6-(((1S,3S)-3-((7-fluoro-[1,2,4]triazolo[1,5-a]pyridin-2-yl)amino)cyclopentyl)amino)pyridin-3-yl)-5,6-dihydro-7H-pyrrolo[3,4-d]pyrimidin-7-one] | 135 | –
2 | 17.6 | O=C1c2c(cccc2C(F)(F)F)CN1c1ccc(N[C@H]2CC[C@H](Nc3nc4cc(F)ccn4n3)C2)nc1 [Example 25] | 132 | –
3 | – | O=C1[C@H](CC[C@H](O)c2ccc(F)cc2)[C@@H](c2ccc(O)cc2)N1c1ccc(F)cc1 [Ezetimibe] | – | 15-20%

Reference: patent publication US12612403B2, “Nitrogen-containing heterocyclic derivative inhibitor, and preparation method therefor and use thereof” (SHANGHAI HANSOH BIOMEDICAL CO., LTD., priority 2024, dated 2026)
